Assay results published in patent US11192863B2, “Antiviral compounds and methods” (Biotron Limited, priority 2003, dated 2021).
Where two headings read alike, the source gives them in different places.

Legend:
HIV = assay type: cell-based
[1] = tested on: porcine respiratory coronavirus (PRCV) strain AR310; assay: PRCV plaque assay in ST cells; assay type: cell-based; details: Alphacoronavirus 1; PRCV plaques in ST cells
MHV (strain MHV-A59) = details: L929 cells
bovine coronavirus (BCV) = assay: BCV plaque assay in MDBK cells; assay type: cell-based; details: Betacoronavirus 1; BCV plaques in MDBK cells
[2] = biological target: Dengue virus M protein C-terminal peptide (Dengue virus type 1, UniProt P33478); assay: Dengue virus M protein C-terminal peptide ion channel in lipid bilayers; assay type: biochemical; details: final concentration of HMA 100 μM in cis chamber
Method: The dengue virus M protein C-terminal peptide (DMVC) was dissolved in 2,2,2-trifluorethanol (TFE) at 0.05 mg/ml to 1 mg/ml. […] Channel activity was seen within 15-30 min.
Solutions of 50 mM HMA were prepared by first making a 500 mM solution in DMSO. This solution was further diluted to 50 mM HMA using 0.1 M HCl. 2 μl of the 50 mM HMA was added to the cis chamber after channel activity was seen. The cis chamber contained 1 ml of solution making the final concentration of HMA 100 μM.

Vpu protein = Vpu protein (Human immunodeficiency virus type 1 group M subtype B, UniProt P05919)
EAV (strain Bucyrus) = assay: EAV plaque reduction assay in BHK-21 cells; assay type: cell-based; details: Equine arteritis virus; EAV plaques in BHK-21 cells
Method: To determine the antiviral activity of compounds against EAV replication (strain Bucyrus; ATCC VR-796), an assay measuring reduction in the number of plaques formed in monolayers of EAV infected BHK-21 cells (ATCC CCL-10) was developed: […] Plates were subsequently incubated at 37° C. […] Plaques were counted in all wells and the percentage reduction in plaque number compared to solvent control was calculated. Measurements were performed in duplicate to quadruplicate wells.

229E-CoV E-protein = 229E-CoV E-protein (Human coronavirus 229E, UniProt P19741); assay: Bacterial bio-assay for 229E-CoV E-protein; details: halo of growth score; E. coli expressing E protein at 37° C.
SARS-CoV E protein = SARS-CoV E protein (Severe acute respiratory syndrome coronavirus, UniProt P59637); assay type: cell-based
[3] = biological target: SARS E protein ion channel (Severe acute respiratory syndrome coronavirus, UniProt P59637); assay type: biochemical, SARS-CoV
human coronavirus OC43 = assay: microbe, parasite or virus in culture; assay type: cell-based; details: Betacoronavirus 1, OC43, MRC5, 120 h, MRC-5 cells, 5 days post infection

NC(N)=NC(=O)c1nc(Cl)c(N2CCCCCC2)nc1N [5-(N,N-hexamethylene)amiloride]
Percent of Positive Control (HIV; Drug Conc. 0.625 μM): 30% | Percent of Positive Control (HIV; Drug Conc. 1.25 μM): 19% | Percent of Positive Control (HIV; Drug Conc. 2.5 μM): 50% | Percent of Positive Control (HIV; Drug Conc. 5 μM): 21% | Percent of Positive Control (HIV; Drug Conc. 10 μM): 6% | At least 1x log reduction seen in p24 assay? (HIV; Table 19b, yes/no): no | EC50 [1]: 0.06 µM | Percent reduction in Plaque number/# experiments (MHV (strain MHV-A59); 1 uM): 13/2% | Percent reduction in Plaque number/# experiments (MHV (strain MHV-A59); 10 uM): 89/1% | Percent reduction in Plaque number/# experiments (MHV (strain MHV-A59); 20 uM): 84/2% | EC50 (bovine coronavirus (BCV)): 9 µM | ion channel activity of the Dengue virus M protein C-terminal peptide (in words) [2]: Inhibits Ion Channel Activity | bacterial growth around site of drug application (FIG. 5) (Vpu protein; 3 μl drop, minimal medium lacking adenine, 37° C. 48 hr): halo of bacterial growth | Bacterial assay rank order (Vpu protein; Table 19a, rank among 12 compounds, 1 = highest score): 10 | Bacterial assay rank order (Vpu protein; Table 19b): 10 | Vpu Bacterial score (Vpu protein; Table 19b): 1.9 | Vpu Inhibition (score/# of times tested) (Vpu protein; halo of growth score between zero and six, XL1-blue E. coli with pPL-Vpu, no adenine, 37° C.): 1.9/31 score | IC50 (EAV (strain Bucyrus)): 7.5 µM | 229E E protein Inhibition (score) (229E-CoV E-protein): 1.9 score | SARS E protein Inhibition (score/# of times tested) (SARS-CoV E protein): 1.2/3 score | % Reduction of average current by 100 μM [3]: 91 ± 7% | inhibition at 2.5 µM (human coronavirus OC43): 30%
